Assay results from PubChem BioAssay AID1919002 (Molecular Pharmacology Branch, DTP, NCI, 2023).

System: 743489-274-T-PDC complex spheroid growth
Test: Anticancer human tumor 743489-274-T-PDC patient-derived renal cell carcinoma cell line growth inhibition [AhR]
Settings: for IC50: curve of first compound; for viability, T/C: stronger effect = lower value
Text: Multicellular complex tumor spheroid response to aryl hydrocarbon receptor antagonists in combination with a variety of drugs and investigational agents in selected tumor cell lines
The current study was undertaken to assess response to aryl hydrocarbon receptor antagonists in combination with standard-of-care drugs and investigational agents in solid tumor complex spheroid models. Complex spheroids include a stromal component modeled by human endothelial cells (HUVEC) and fibroblasts modeled by human mesenchymal stem cells (MSCs). The concentration ranges selected for each drug and investigational agent were based upon clinically achievable concentrations if the clinical Cmax of the agent was known.
Compounds. The drugs and investigational agents: BAY 2416964 (NSC825713), GNF351 (NSC835774), CH-223191 (NSC835775), CPI-455 (NSC825282), aza-TdCyd (NSC777586), decitabine (NSC127716), belinostat (NSC758774), entinostat (NSC756642), pevonedistat (NSC761192), tazemetostat (NSC777109), talazoparib (NSC765396), olaparib (NSC753686), selinexor (NSC780203), nedisertib (M3814, NSC802822), bortezomib (NSC756655), venetoclax (NSC766270), doxorubicin (NSC123127), elimusertib (BAY189344, NSC800525), ceralasertib (AZD6738, NSC777638), TAK-243 (NSC785004), alisertib (NSC759677), etoposide (NSC141540), topotecan (NSC609699), eribulin (NSC707389), gemcitabine (NSC613327), carboplatin (NSC241240), cisplatin (NSC119875), and SN-38 (NSC673596) were obtained from the National Cancer Institute (NCI) Developmental Therapeutics Program Chemical Repository (32). The FDA-approved anticancer drug set is available from the Developmental Therapeutics Program at https://dtp.cancer.gov/organization/dscb/obtaining/available plates.htm. […] The stock solutions were prepared in dimethyl sulfoxide (DMSO, Sigma-Aldrich, St. Louis, MO, cat. D2650), except for the platinum compounds which were prepared in saline (Quality Biological, Gaithersburg, MD, cat. 114-055-101), at 800-fold the tested concentration and stored at -70 degrees C prior to their use. All drugs and investigational agents were tested over a range starting from a high concentration at or near the clinical Cmax and decreasing in half-log increments. If the clinical Cmax for an agent had not been determined, the highest concentration tested was 10 microM (Table 1).
Cell Culture. All cells were maintained in an incubator at 37 degrees C and 5% CO2 with 95% humidity. The PDC lines were cultured according to standard operating procedures established by the NCI PDMR (https://pdmr.cancer.gov). Briefly, all PDCs were thawed and cultured in Matrigel-coated flasks prepared with a working solution of 1X Ham's F-12 nutrient mix, without supplementation (Invitrogen, Waltham, MA, cat. 11765054), 100 U/mL penicillin-streptomycin (Invitrogen, cat. 15140122), and 2.5% Matrigel (Corning Inc., Corning, NY, cat. 354248) for the first three passages. All PDCs were cultured in complete DMEM/F-12 media containing advanced DMEM/F-12 (Invitrogen, cat. 12634028), 4.9% defined fetal bovine serum, heat inactivated (HyClone Laboratories Inc., Logan, UT, cat. SH30070.03HI), 389 ng/mL hydrocortisone (Sigma-Aldrich, cat. H4001), 9.7 ng/mL human EGF recombinant protein (Invitrogen, cat. PHG0313), 23.4 microg/mL adenine (Sigma-Aldrich, cat. A2786), 97.3 U/mL penicillin-streptomycin (Invitrogen, cat. 15140122), 1.9 mM L-glutamine (Invitrogen, cat. 25030081), and 9.7 microM Y-27632 dihydrochloride (Tocris Bioscience, Bristol, United Kingdom, cat. 1254). The PDCs were cultured in complete DMEM/F12 media without 10 microM Y-27632 dihydrochloride for at least two passages prior to the screen. The established cell lines NCI-H1341 and […] were cultured in DMEM/F-12, HEPES (Invitrogen, cat. 11330032), 5% defined fetal bovine serum (HyClone Laboratories Inc., cat. SH30070.03), ITS premix universal culture supplement [insulin (5 microg/mL), transferrin (5 microg/mL), and selenious acid (5 ng/mL)] […]

[1] = second compound 0.1 µM, first compound 0.0316 µM
[2] = second compound 0.1 µM, first compound 0.1 µM
[3] = second compound 0.316 µM, first compound 0.0316 µM
[4] = second compound 0.316 µM, first compound 0.1 µM
[5] = second compound 1 µM, first compound 0.0316 µM
[6] = second compound 1 µM, first compound 0.1 µM
[7] = second compound 3.16 µM, first compound 0.0316 µM
[8] = second compound 3.16 µM, first compound 0.1 µM
[9] = second compound 10 µM, first compound 0.0316 µM
[10] = second compound 10 µM, first compound 0.1 µM
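Further: spheroids exposed to agents for 7 days before readout.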
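Wherever viability, T/C is given: 100% = DMSO vehicle control wells.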

CC[C@@]1(O)C(=O)OCc2c1cc1n(c2=O)Cc2cc3c(CN(C)C)c(O)ccc3nc2-1 + CC(CO)NC(=O)c1cc(-c2ccc(Cl)cc2)nn(-c2cnn(C)c2)c1=O
IC50 (second compound 0.1 µM): > 0.1 µM
IC50 (second compound 0.316 µM): > 0.1 µM
IC50 (second compound 1 µM): > 0.1 µM
IC50 (second compound 3.16 µM): > 0.1 µM
IC50 (second compound 10 µM): > 0.1 µM
viability, T/C (second compound 0.1 µM, first compound 0.000316 µM): 99.8%
viability, T/C (second compound 0.1 µM, first compound 0.001 µM): 97.9%
viability, T/C (second compound 0.1 µM, first compound 0.00316 µM): 91.4%
viability, T/C (second compound 0.1 µM, first compound 0.01 µM): 94.4%
viability, T/C [1]: 86.6%
viability, T/C [2]: 86.4%
viability, T/C (second compound 0.316 µM, first compound 0.000316 µM): 90.7%
viability, T/C (second compound 0.316 µM, first compound 0.001 µM): 96.5%
viability, T/C (second compound 0.316 µM, first compound 0.00316 µM): 102%
viability, T/C (second compound 0.316 µM, first compound 0.01 µM): 84.7%
viability, T/C [3]: 83.3%
viability, T/C [4]: 82.3%
viability, T/C (second compound 1 µM, first compound 0.000316 µM): 96.2%
viability, T/C (second compound 1 µM, first compound 0.001 µM): 98.9%
viability, T/C (second compound 1 µM, first compound 0.00316 µM): 95.4%
viability, T/C (second compound 1 µM, first compound 0.01 µM): 87%
viability, T/C [5]: 86.2%
viability, T/C [6]: 79%
viability, T/C (second compound 3.16 µM, first compound 0.000316 µM): 91.2%
viability, T/C (second compound 3.16 µM, first compound 0.001 µM): 89.9%
viability, T/C (second compound 3.16 µM, first compound 0.00316 µM): 92.4%
viability, T/C (second compound 3.16 µM, first compound 0.01 µM): 84%
viability, T/C [7]: 92.5%
viability, T/C [8]: 88.3%
viability, T/C (second compound 10 µM, first compound 0.000316 µM): 92.4%
viability, T/C (second compound 10 µM, first compound 0.001 µM): 92.7%
viability, T/C (second compound 10 µM, first compound 0.00316 µM): 109%
viability, T/C (second compound 10 µM, first compound 0.01 µM): 92.4%
viability, T/C [9]: 85.9%
viability, T/C [10]: 81.4%

COc1cc(C2c3cc4c(cc3C(OC3OC5COC(C)OC5C(O)C3O)C3COC(=O)C23)OCO4)cc(OC)c1O (stereo not given) + CC(CO)NC(=O)c1cc(-c2ccc(Cl)cc2)nn(-c2cnn(C)c2)c1=O
IC50 (second compound 0.1 µM): > 10 µM
IC50 (second compound 0.316 µM): > 10 µM
IC50 (second compound 1 µM): > 10 µM
IC50 (second compound 3.16 µM): > 10 µM
IC50 (second compound 10 µM): > 10 µM
viability, T/C [1]: 107%
viability, T/C [2]: 114%
viability, T/C (second compound 0.1 µM, first compound 0.316 µM): 95.1%
viability, T/C (second compound 0.1 µM, first compound 1 µM): 95.9%
viability, T/C (second compound 0.1 µM, first compound 3.16 µM): 99.6%
viability, T/C (second compound 0.1 µM, first compound 10 µM): 97%
viability, T/C [3]: 99.3%
viability, T/C [4]: 118%
viability, T/C (second compound 0.316 µM, first compound 0.316 µM): 108%
viability, T/C (second compound 0.316 µM, first compound 1 µM): 93.5%
viability, T/C (second compound 0.316 µM, first compound 3.16 µM): 92%
viability, T/C (second compound 0.316 µM, first compound 10 µM): 90.7%
viability, T/C [5]: 98.6%
viability, T/C [6]: 96.4%
viability, T/C (second compound 1 µM, first compound 0.316 µM): 101%
viability, T/C (second compound 1 µM, first compound 1 µM): 103%
viability, T/C (second compound 1 µM, first compound 3.16 µM): 86.6%
viability, T/C (second compound 1 µM, first compound 10 µM): 94.9%
viability, T/C [7]: 99.9%
viability, T/C [8]: 97%
viability, T/C (second compound 3.16 µM, first compound 0.316 µM): 102%
viability, T/C (second compound 3.16 µM, first compound 1 µM): 95.4%
viability, T/C (second compound 3.16 µM, first compound 3.16 µM): 97.7%
viability, T/C (second compound 3.16 µM, first compound 10 µM): 90.9%
viability, T/C [9]: 108%
viability, T/C [10]: 109%
viability, T/C (second compound 10 µM, first compound 0.316 µM): 103%
viability, T/C (second compound 10 µM, first compound 1 µM): 106%
viability, T/C (second compound 10 µM, first compound 3.16 µM): 97%
viability, T/C (second compound 10 µM, first compound 10 µM): 92.1%
